1 molecule from patent US10828241B2, “Skin lightening compositions and methods” (SYTHEON LIMITED, priority 2018, dated 2020) can be followed below.

The experiment deals with skin pigmentation. Description: Clinical study: facial pigment intensity from digital photography. In kind it is in vivo, human. As to conditions: lotion with 1.00% acetyl zingerone (Formulation 1A) applied to full face twice daily, group of 17.

As to `COc1cc(CC(C(C)=O)C(C)=O)ccc1O` [Compd. 1, Acetyl Zingerone], the “Pigment Intensity (% Change), Average” value is listed as −25.580% (4 weeks) and −25.601% (8 weeks).
